Measured values reported in patent US9955692B2, “Pyrazoles for controlling invertebrate pests” (BASF SE, priority 2014, dated 2018).

Columns and labels:
Assay type in all cases: in vivo
[1] = tested on: Cowpea aphid (Aphis craccivora); assay: Cowpea aphid spray test on potted cowpea plants; conditions: population reduction assessed after 24, 72 and 120 hours, read-out: mortality in comparison with untreated controls
Experimental: If not otherwise specified the test solutions were prepared as follows:
The active compound was dissolved at the desired concentration in a mixture of 1:1 (vol:vol) distilled water:aceton. The test solution was prepared at the day of use and in general at concentrations of ppm (wt/vol).
Potted cowpea plants colonized with 100-150 aphids of various stages were sprayed after the pest population had been recorded. Population reduction was assessed after 24, 72, and 120 hours.

[2] = tested on: Vetch aphid (Megoura viciae); assay: Vetch aphid bean leaf disk microtiter plate test; conditions: foliar, 144 h, 6 days, assessed on the basis of vital, reproduced aphids, read-out: mortality in comparison with untreated controls
Experimental: The active compounds were formulated in 3:1 (vol:vol) water:DMSO with different concentrations of formulated compounds.
Bean leaf disks were placed into microtiterplates filled with 0.8% agar-agar and 2.5 ppm OPUS™. The leaf disks were sprayed with 2.5 μl of the test solution and 5 to 8 adult aphids were placed into the microtiter plates which were then closed and kept at 23±1° C. and 50±5% relative humidity under fluorescent light for 6 days. Mortality was assessed on the basis of vital, reproduced aphids. Aphid mortality and fecundity was then visually assessed.

[3] = tested on: Silverleaf whitefly (Bemisia argentifolii, adult); assay: Silverleaf whitefly test on sprayed cotton plants; conditions: 72 h, mortality assessed 3 days after treatment, read-out: mortality in comparison with untreated controls
Experimental: (§1) The active compounds were formulated in cyclohexanone as a 10,000 ppm solution supplied in 1.3 ml ABgene® tubes. These tubes were inserted into an automated electrostatic sprayer equipped with an atomizing nozzle and they served as stock solutions for which lower dilutions were made in 1:1 (vol:vol) water:aceton. A nonionic surfactant (Kinetic®) was included in the solution at a volume of 0.01% (v/v).
Cotton plants at the cotyledon stage (one plant per pot) were sprayed by an automated electrostatic plant sprayer equipped with an atomizing spray nozzle. The plants were dried in the sprayer fume hood and then removed from the sprayer. Each pot was placed into a plastic cup and 10 to 12 whitefly adults (approximately 3-5 days […]) were introduced. The insects were collected using an aspirator and 0.6 cm, nontoxic Tygon® tubing (R-3603) connected to a barrier pipette tip. The tip, containing the collected insects, was then gently inserted into the soil containing the treated plant, allowing insects to crawl out of the tip to reach the foliage for feeding. Cups were covered with a reusable screened lid (150-micron mesh polyester screen PeCap from Tetko, Inc.). […] Mortality was assessed 3 days after treatment, compared to untreated control plants.

[4] = tested on: Cotton aphid (Aphis gossypii, mixed life stages); assay: Cotton aphid spray test on cotton plants; conditions: 120 h, aphid mortality determined after 5 days, read-out: mortality in comparison with untreated controls
Experimental: as §1
Cotton plants at the cotyledon stage were infested with aphids prior to treatment by placing a heavily infested leaf from the main aphid colony on top of each cotyledon. Aphids were allowed to transfer overnight to accomplish an infestation of 80-100 aphids per plant and the host leaf was removed. The infested plants were then sprayed by an automated electrostatic plant sprayer equipped with an atomizing spray nozzle. The plants were dried in the sprayer fume hood, removed from the sprayer, and then maintained in a growth room under fluorescent lighting in a 24-hr photoperiod at 25° C. and 20-40% relative humidity. Aphid mortality on the treated plants, relative to mortality on untreated control plants, was determined after 5 days.

[5] = tested on: Green peach aphid (Myzus persicae); assay: Green peach aphid spray test on bell pepper plants; conditions: 120 h, aphid mortality determined after 5 days, read-out: mortality in comparison with untreated controls
Experimental: as §1
Bell pepper plants at the first true-leaf stage were infested prior to treatment by placing heavily infested leaves from the main colony on top of the treatment plants. Aphids were allowed to transfer overnight to accomplish an infestation of 30-50 aphids per plant and the host leaves were removed. The infested plants were then sprayed by an automated electrostatic plant sprayer equipped with an atomizing spray nozzle. The plants were dried in the sprayer fume hood, removed, and then maintained in a growth room under fluorescent lighting in a 24 hour photoperiod at 25° C. and 20-40% relative humidity. Aphid mortality on the treated plants, relative to mortality on untreated control plants, was determined after 5 days.

CCC(C)=NOCC(C)n1ncc(C(=O)N(CC)c2ccnnc2)c1C (single isomer, unassigned) [I-9, N-ethyl-5-methyl-1-[1-methyl-2-[1-methyl-propylideneamino]oxy-ethyl]-N-pyridazin-4-yl-pyrazole-4-carboxamide]
≥ 75%: mortality at 500 ppm [1] | mortality at 2500 ppm [2] | mortality at 300 ppm [3] | mortality at 300 ppm [4] | mortality at 300 ppm [5]
